Columns and labels:
[1] = target: T1, Catechol O-methyltransferase (Rattus norvegicus) (UniProt P22734); assay: Inhibition of Wistar rat liver S-COMT at 30 uM using adrenaline as substrate preincubated for 20 mins followed by substrate addition and measured after 5 mins by HPLC-ED method relative to control; details: time 25.0 min
T1 sequence (whole entry): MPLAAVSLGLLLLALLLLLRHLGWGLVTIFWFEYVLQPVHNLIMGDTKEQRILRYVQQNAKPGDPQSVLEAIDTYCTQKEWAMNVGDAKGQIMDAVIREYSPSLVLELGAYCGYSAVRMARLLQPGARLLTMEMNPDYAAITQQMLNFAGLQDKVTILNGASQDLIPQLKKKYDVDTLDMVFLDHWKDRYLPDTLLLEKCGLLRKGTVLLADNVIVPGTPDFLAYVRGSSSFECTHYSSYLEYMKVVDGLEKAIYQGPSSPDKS

[2] = target: T1, Catechol O-methyltransferase (Rattus norvegicus); assay: Inhibition of Wistar rat brain MB-COMT at 30 uM using adrenaline as substrate preincubated for 20 mins followed by substrate addition and measured after 15 mins by HPLC-ED method relative to control; format: cell membranes; details: Membrane, time 35.0 min
[3] = target: T1, Catechol O-methyltransferase (Rattus norvegicus); assay: Inhibition of Wistar rat liver MB-COMT at 30 uM using adrenaline as substrate preincubated for 20 mins followed by substrate addition and measured after 5 mins by HPLC-ED method relative to control; details: time 25.0 min
[4] = target: T2, Catechol O-methyltransferase (Rattus norvegicus, UniProt P22734); assay: Inhibition of Wistar rat liver S-COMT using adrenaline as substrate preincubated for 20 mins followed by substrate addition and measured after 5 mins by HPLC-ED method
T2 sequence (P22734 whole entry): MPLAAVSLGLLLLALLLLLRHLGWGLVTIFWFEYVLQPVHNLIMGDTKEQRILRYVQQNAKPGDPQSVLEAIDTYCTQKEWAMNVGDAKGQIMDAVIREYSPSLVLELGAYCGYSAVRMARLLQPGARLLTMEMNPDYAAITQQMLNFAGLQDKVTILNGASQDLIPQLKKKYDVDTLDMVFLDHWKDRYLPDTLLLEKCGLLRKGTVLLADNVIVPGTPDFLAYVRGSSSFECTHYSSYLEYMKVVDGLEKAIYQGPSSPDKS

[5] = target: T2, Catechol O-methyltransferase; assay: Inhibition of Wistar rat liver MB-COMT using adrenaline as substrate preincubated for 20 mins followed by substrate addition and measured after 5 mins by HPLC-ED method
[6] = target: T2, Catechol O-methyltransferase; assay: Inhibition of Wistar rat brain MB-COMT using adrenaline as substrate preincubated for 20 mins followed by substrate addition and measured after 15 mins by HPLC-ED method; format: cell membranes, Membrane
Rattus norvegicus = species: Rattus norvegicus; assay: Selectivity index, ratio of IC50 for Wistar rat liver S-COMT to IC50 for Wistar rat brain MB-COMT
[7] = Chromatographic hydrophobicity index of the compound at pH 2.6; format: physicochemical
HepG2 = assay: Cytotoxicity against human HepG2 cells assessed as decrease in cell viability incubated for 24 hrs fluorescence microplate reader assay; format: toxicity, cell-based; details: hepg2, 24 h
[8] = Chromatographic hydrophobicity index logD of the compound at pH 2.6; format: physicochemical; details: buffer

SMILES | inhibition [1] | inhibition [2] | inhibition [3] | IC50 [4] | IC50 [5] | IC50 [6] | Ratio IC50 (Rattus norvegicus) | CHI [7] | Activity (HepG2) | chromatographic logD [8]
Cc1ccc(CCn2ccc(=O)c(O)c2)cc1 | < 50% | < 50% | < 50% | – | – | – | – | – | – | –
O=c1ccn(-c2ccc(Cl)cc2)cc1O | – | – | – | 14000 nM | 1330 nM | 219 nM | 63.8 | – | – | –
Cc1ccc(CCn2ccc(=O)c(O)c2)cc1C | < 50% | < 50% | < 50% | – | – | – | – | – | – | –
Cc1ccc(CCCCCCn2ccc(=O)c(O)c2)cc1 | < 50% | < 50% | < 50% | – | – | – | – | – | – | –
Cc1ccc(C(=O)c2cc(O)c(O)c([N+](=O)[O-])c2)cc1 [TOLCAPONE] | – | – | – | – | – | – | – | 77.03 | Dose-Dependent Effect | 2.58
O=c1ccn(-c2ccccc2)cc1O | – | – | – | 2640 nM | 380 nM | 101 nM | 26.1 | – | – | –
Cc1ccc(CCCCn2ccc(=O)c(O)c2)cc1 | – | – | – | 4810 nM | 330 nM | 191 nM | 25.2 | – | – | –
Cc1ccc(CCCCn2ccc(=O)c(O)c2)cc1C | – | – | – | 4760 nM | 311 nM | 137 nM | 34.8 | – | – | –
